Measurements from article PMC10046020, “In Silico Screening and Optimization of Cell-Penetrating Peptides Using Deep Learning Methods” (Biomolecules, 2023).
Read-outs that look alike come from different tables or passages of the source. Peptide text beside a SMILES is read from it. * marks the point of attachment. FITC = O=C1OC2(c3ccc(O)cc3Oc3cc(O)ccc32)c2ccc(NC(=S)*)cc21; Ahx = NCCCCCC(=O)O

How the values were obtained:
[1] = cited from earlier work
Description: Supplement biomolecules-13-00522-s001.zip/biomolecules-2162660_Supplementary Spreadsheets S1 Test Set.csv, table | column: class || Supplement biomolecules-13-00522-s001.zip/biomolecules-2162660_Supplementary Spreadsheets S2 Train Set.csv, table | column: class

[2] = Spreadsheet S1: 150 CPP and 150 non-CPP peptides collected from CellPPD, MLCPP, CPPsite 2.0, Lifetein and other publications

Description for MCF-7 cells: MCF-7 cells are maintained in Roswell Park Memorial Institute 1640 medium supplemented with 10% fetal bovine serum and 1% antibiotics at 37 °C in an atmosphere of 5% CO2 in the air. Cells are cultured in a 35-mm plate at a density of 5 × 10^5 cells in growth medium, incubated overnight, and then treated with 1 µM FITC-conjugated peptide for 1 h at 37 °C in a CO2 incubator.
The cultured cells are harvested, washed twice with phosphate-buffered saline (PBS), treated with trypsin for 5 min, washed with PBS again, and then resuspended in 1 mL of 2% paraformaldehyde in PBS. Cells were then transferred to a fluorescence-activated cell sorting tube and analyzed by flow cytometry using a Novocyte flow cytometer (Agilent, Santa Clara, CA, USA).

Compound	class (CPP / Non-CPP), Test Set [1, 2]	further results
CSCC[C@H](NC(=O)CCCCCNC(=S)Nc1ccc2c(c1)C(=O)OC21c2ccc(O)cc2Oc2cc(O)ccc21)C(=O)N[C@@H](CC(C)C)C(=O)N1CCC[C@H]1C(=O)NCC(=O)N[C@@H](CC(C)C)C(=O)N[C@@H](C)C(=O)N[C@@H](CC(C)C)C(=O)N[C@@H](CC(C)C)C(=O)N[C@@H](CC(C)C)C(=O)N[C@@H](CC(C)C)C(=O)N[C@@H](C)C(=O)N[C@@H](C)C(=O)N[C@@H](Cc1c[nH]c2ccccc12)C(=O)N[C@H](C(=O)N[C@@H](C)C(=O)N[C@@H](CCCNC(=N)N)C(=O)N[C@@H](C)C(N)=O)[C@@H](C)O [Peptide 1] ({FITC-Ahx}-MLPGLALLLLAAWTARA-NH2)		Permeability (MCF-7 cells): 10.40%
CSCC[C@H](NC(=O)CCCCCNC(=S)Nc1ccc2c(c1)C(=O)OC21c2ccc(O)cc2Oc2cc(O)ccc21)C(=O)N[C@@H](CC(C)C)C(=O)N1CCC[C@H]1C(=O)NCC(=O)N[C@@H](CC(C)C)C(=O)N[C@@H](C)C(=O)N[C@@H](CC(C)C)C(=O)N[C@@H](CC(C)C)C(=O)N[C@@H](CCCCN)C(=O)N[C@@H](CC(C)C)C(=O)N[C@@H](C)C(=O)N[C@@H](C)C(=O)N[C@@H](Cc1c[nH]c2ccccc12)C(=O)N[C@H](C(=O)N[C@@H](C)C(=O)N[C@@H](CCCNC(=N)N)C(=O)N[C@@H](C)C(N)=O)[C@@H](C)O [Peptide 2] ({FITC-Ahx}-MLPGLALLKLAAWTARA-NH2)		cell permeability compared to the WT peptide (MCF-7 cells): lower cell permeability than the WT CPP
CSCC[C@H](NC(=O)CCCCCNC(=S)Nc1ccc2c(c1)C(=O)OC21c2ccc(O)cc2Oc2cc(O)ccc21)C(=O)N[C@@H](CC(C)C)C(=O)N[C@@H](CCCCN)C(=O)N[C@@H](Cc1c[nH]cn1)C(=O)N[C@@H](CC(C)C)C(=O)N[C@@H](C)C(=O)N[C@@H](CC(C)C)C(=O)N[C@@H](CC(C)C)C(=O)N[C@@H](CC(C)C)C(=O)N[C@@H](CC(C)C)C(=O)N[C@@H](C)C(=O)N[C@@H](C)C(=O)N[C@@H](Cc1c[nH]c2ccccc12)C(=O)N[C@@H](CCCCN)C(=O)N[C@@H](C)C(=O)N[C@@H](CCCNC(=N)N)C(=O)N[C@@H](C)C(N)=O [Peptide 7] ({FITC-Ahx}-MLKHLALLLLAAWKARA-NH2)		Permeability (MCF-7 cells): 59.07%
CSCC[C@H](NC(=O)CCCCCNC(=S)Nc1ccc2c(c1)C(=O)OC21c2ccc(O)cc2Oc2cc(O)ccc21)C(=O)N[C@@H](CCCCN)C(=O)N1CCC[C@H]1C(=O)NCC(=O)N[C@@H](CC(C)C)C(=O)N[C@@H](C)C(=O)N[C@@H](CC(C)C)C(=O)N[C@@H](CC(C)C)C(=O)N[C@@H](CC(C)C)C(=O)N[C@@H](CC(C)C)C(=O)N[C@@H](C)C(=O)N[C@@H](C)C(=O)N[C@@H](CCCCN)C(=O)N[C@@H](CCCCN)C(=O)N[C@@H](C)C(=O)N[C@@H](CCCNC(=N)N)C(=O)N[C@@H](C)C(N)=O [Peptide 10] ({FITC-Ahx}-MKPGLALLLLAAKKARA-NH2)		cell permeability compared to the WT peptide (MCF-7 cells): lower cell permeability than the WT CPP
SNGHACRPW		class (CPP / Non-CPP), Test Set [1]: Non-CPP
SRISNRLSSSATRT	Non-CPP	
STGKANKITITNDKGRLSK	CPP	
SWFASTGGRDSKIDVWSLVP	Non-CPP	
SYNTF		class (CPP / Non-CPP), Test Set [1]: Non-CPP
TAAGDARANAVAKAGLHDLNIETDTERNH	Non-CPP	
TAMRAVDKLLLHLKKLFREGQFNRNFESIIICRDRT	CPP	
TAQVFFNVYKKAKPN	Non-CPP	
TERQGKIWFQNRRMK	Non-CPP	
TERQIKIWFQNRCMK	Non-CPP	
TERQIKIWFQNRRMK	Non-CPP	
TFFYGGSRGKRNNFKTEEY	CPP	
TPTSPSSPGLSPVPPPDKVDGFSRRSLRRARPRR	Non-CPP	
TRQARRNRRRWRERQR	CPP	
TRSSRAGLQFPVGRVIIRLLRK	CPP	
TRTSRGWHTTDLKYN	Non-CPP	
TTPFTIRGPLGNQGRGNPVR	Non-CPP	
TWLKYH		class (CPP / Non-CPP), Test Set [1]: CPP
VATIKSVSFYTRK		class (CPP / Non-CPP), Test Set [1]: Non-CPP
VDFEEAYLAVS		class (CPP / Non-CPP), Test Set [1]: Non-CPP
VGALAVVVWLWLWLWAGSGPKKKRKVC	CPP	
VIVTERVLLLVAP		class (CPP / Non-CPP), Test Set [1]: Non-CPP

Compound	class (CPP / Non-CPP), Test Set [1, 2]	further results
VIVYIVVKDASSK		class (CPP / Non-CPP), Test Set [1]: Non-CPP
VKKKKIKREIKIAAQRYGRELRRMADEFHV	CPP	
VKRFKKFFRKLKKLV	CPP	
VQQQQPLGQQQP		class (CPP / Non-CPP), Test Set [1]: Non-CPP
VTQADVGSALANLKIPGVGS	Non-CPP	
VVLYKYRCYKVI		class (CPP / Non-CPP), Test Set [1]: CPP
WEAVVAYGRKKRRQRRR	CPP	
WELVVAYGRKKRRQRRR	CPP	
WELVVLGYGRKKRRQRRR	CPP	
WRRRYRRWRRRRRWRRRPRR	CPP	
WRWKKKKA		class (CPP / Non-CPP), Test Set [1]: CPP
WRWRWRWRW		class (CPP / Non-CPP), Test Set [1]: CPP
YARVRRRGPRRR		class (CPP / Non-CPP), Test Set [1]: CPP
YGDCLPHLKLCKENKDCCSKKCKRRGTNIEKRCR	CPP	
YGFMELFDDVTAIFSIDHCQEEYYEQMANNVM	Non-CPP	
YGRGGRRGRRR		class (CPP / Non-CPP), Test Set [1]: CPP
YGRKKRRQRRRGC	CPP	
YGRKKRRQRRRPPLRKKKKKH	CPP	
YGRKKRRQRRRYGRKKRRQRRR	CPP	
YGRKKRRQRRTALDWSWLQTE	CPP	
YMVGLCDYHILYSGWGQMDWHPEPHFYAWMYR	Non-CPP	
YRDRFAFQPH		class (CPP / Non-CPP), Test Set [1]: CPP
YSSQHLCGSNLVEALYMTCGRSGFYRPHD	Non-CPP	
YTFGLKTSFNVQ		class (CPP / Non-CPP), Test Set [1]: CPP
YTMQMLLEIHRKNW	Non-CPP	
YTPNDITLNNSVALDPIDISIELNKAKSDLEESKE	Non-CPP	
